The results in this text go back to patent USRE48267E1, “Variants of C-type natriuretic peptide” (priority 2009, dated 2020).

Read-outs that look alike come from different tables or passages of the source. Where a SMILES comes first, the peptide text is derived from it. Bridges are numbered along the chain shown (N, C = ends). Where no end group is shown, it is not given here. [ ]: non-standard residue; d: D form. Cit = NC(=O)NCCC[C@H](N)C(=O)O

One data set concerns the target T1, NPR-B (Mus musculus, UniProt Q6VVW5).
T1 construct: Murine NIH3T3 cells express endogenously the CNP signaling receptor, NPR-B; endogenous in cells; host or cells: NIH3T3
T1 sequence (Q6VVW5 17-1047): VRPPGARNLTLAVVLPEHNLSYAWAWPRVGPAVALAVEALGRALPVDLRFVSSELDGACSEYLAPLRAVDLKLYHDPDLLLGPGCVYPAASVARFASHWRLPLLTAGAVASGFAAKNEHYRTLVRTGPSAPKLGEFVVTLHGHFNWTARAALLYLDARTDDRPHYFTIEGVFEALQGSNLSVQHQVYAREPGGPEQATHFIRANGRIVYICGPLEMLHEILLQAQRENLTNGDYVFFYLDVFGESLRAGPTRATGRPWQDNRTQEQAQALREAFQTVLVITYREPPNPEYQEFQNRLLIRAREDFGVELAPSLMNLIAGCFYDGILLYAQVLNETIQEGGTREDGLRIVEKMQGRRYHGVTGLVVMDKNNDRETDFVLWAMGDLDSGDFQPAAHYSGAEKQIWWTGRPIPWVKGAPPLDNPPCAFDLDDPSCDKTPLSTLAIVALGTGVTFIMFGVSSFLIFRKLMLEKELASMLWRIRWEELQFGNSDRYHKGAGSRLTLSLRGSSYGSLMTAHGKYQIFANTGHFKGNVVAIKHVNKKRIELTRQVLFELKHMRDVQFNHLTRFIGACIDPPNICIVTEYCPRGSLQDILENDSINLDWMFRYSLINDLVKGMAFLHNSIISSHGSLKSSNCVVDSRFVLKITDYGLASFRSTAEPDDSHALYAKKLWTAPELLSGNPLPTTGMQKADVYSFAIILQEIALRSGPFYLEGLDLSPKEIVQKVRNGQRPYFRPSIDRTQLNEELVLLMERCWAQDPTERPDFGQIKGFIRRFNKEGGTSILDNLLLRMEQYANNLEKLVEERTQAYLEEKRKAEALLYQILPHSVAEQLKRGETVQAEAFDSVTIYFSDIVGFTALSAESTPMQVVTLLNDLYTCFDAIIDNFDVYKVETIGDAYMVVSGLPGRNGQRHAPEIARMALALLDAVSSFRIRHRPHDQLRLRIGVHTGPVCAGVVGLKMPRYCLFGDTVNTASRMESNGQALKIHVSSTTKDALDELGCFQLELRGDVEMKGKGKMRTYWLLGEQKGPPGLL
Nature of the data set: stimulation of cGMP production in NIH3T3 cells. Format: cell-based, murine. The conditions noted are these: for cGMP Response rel. to 1 uM CNP22, 10 nM: NIH3T3 cells exposed to 10 nM peptide; for cGMP Response rel. to 1 uM CNP22, 10 nM / cGMP Response rel. to 1 uM CNP22, 1 uM: normalized to cell number and cGMP production in the presence of 1 uM wtCNP22; for cGMP Response rel. to 1 uM CNP22, 1 uM: NIH3T3 cells exposed to 1 uM peptide. As to the method: To determine the functional activity of CNP variants, the production of cGMP was measured in NIH3T3 cells exposed to the CNP variants. Murine NIH3T3 cells express endogenously the CNP signaling receptor, NPR-B, which shares 98% protein sequence identity with human NPR-B. NIH3T3 cells were cultured in high glucose Dulbecco's Modified Eagle Medium supplemented with 10% fetal calf serum and antibiotics at 37° C. with 5% CO2). Twenty four to 48 hours prior to signaling, cells were passaged to 12-well plates with a density of 2-5×10^5 cells per well at the time of the assay. CNP variants were resuspended in 1 mM HCl to a stock concentration of 1 mg/mL (455 uM for wtCNP22) and subsequently diluted to a 30 uM working stock solution with phosphate-buffered saline (PBS). Ten-fold serial dilutions were prepared in phosphate-buffered saline. Culture medium was removed from the cells and replaced with 0.4 mL PBS/Dulbecco's modified Eagle medium (50/50, v/v) containing 0.75 mM isobutylmethylxanine. Plates were incubated at 37° C., 5% CO2 for 15 minutes before addition of 0.2 mL CNP variant in PBS and continued incubation at 37° C. for 15 minutes. Reactions were stopped by the addition of 0.2 mL lysis buffer supplied with the CatchPoint cGMP assay kit (Molecular Devices), and cGMP production was determined with the CatchPoint cGMP Assay (Molecular Devices). All stimulation experiments were performed in duplicate.
Tables 1-4 summarize the ability of CNP variants having backbone or side chain modifications, amino acid substitutions, N-terminal amino acid extensions, and/or N-terminal PEGylation, respectively, to stimulate cGMP production in NIH3T3 cells. In all four tables, the values for cGMP production in NIH3T3 cells exposed to 10 nM or 1 uM CNP variant are normalized to cell number and cGMP production in the presence of 1 uM wtCNP22.

The next data set concerns the target Recombinant human NEP (Homo sapiens, UniProt P08473). The data set is described as follows: in vitro NEP cleavage assay (disappearance of non-cleaved CNP variant). The conditions noted are these: for NEP Cleavage (t1/2, min): 100 uM peptide, 1 ug/mL NEP, 0.1 M Tris pH 7, 37° C., adjusted t1/2, CNP22 normalized to 80 min. On the procedure:
To determine the effects of amino acid substitutions, amino acid extensions, backbone modifications, side chain modifications and PEGylation on the susceptibility of CNP variants to neutral endopeptidase (NEP) cleavage, peptide cleavage assays were carried out using an in vitro assay that monitored disappearance of the non-cleaved CNP variant.
Recombinant human NEP (1 ug/mL final concentration) was added to 100 uM CNP variant diluted in 0.1 M Tris, pH 7. The reaction mixture was incubated at 37° C. for various periods of time, and the reaction was quenched with EDTA (10 mM final) followed by heat denaturation. The reaction mixture was reduced and then the reaction products were analyzed using HPLC and mass spectroscopy. The half-life of the CNP variant was calculated based on the disappearance of intact CNP variant over time.

Sequence of Recombinant human NEP (P08473 whole entry): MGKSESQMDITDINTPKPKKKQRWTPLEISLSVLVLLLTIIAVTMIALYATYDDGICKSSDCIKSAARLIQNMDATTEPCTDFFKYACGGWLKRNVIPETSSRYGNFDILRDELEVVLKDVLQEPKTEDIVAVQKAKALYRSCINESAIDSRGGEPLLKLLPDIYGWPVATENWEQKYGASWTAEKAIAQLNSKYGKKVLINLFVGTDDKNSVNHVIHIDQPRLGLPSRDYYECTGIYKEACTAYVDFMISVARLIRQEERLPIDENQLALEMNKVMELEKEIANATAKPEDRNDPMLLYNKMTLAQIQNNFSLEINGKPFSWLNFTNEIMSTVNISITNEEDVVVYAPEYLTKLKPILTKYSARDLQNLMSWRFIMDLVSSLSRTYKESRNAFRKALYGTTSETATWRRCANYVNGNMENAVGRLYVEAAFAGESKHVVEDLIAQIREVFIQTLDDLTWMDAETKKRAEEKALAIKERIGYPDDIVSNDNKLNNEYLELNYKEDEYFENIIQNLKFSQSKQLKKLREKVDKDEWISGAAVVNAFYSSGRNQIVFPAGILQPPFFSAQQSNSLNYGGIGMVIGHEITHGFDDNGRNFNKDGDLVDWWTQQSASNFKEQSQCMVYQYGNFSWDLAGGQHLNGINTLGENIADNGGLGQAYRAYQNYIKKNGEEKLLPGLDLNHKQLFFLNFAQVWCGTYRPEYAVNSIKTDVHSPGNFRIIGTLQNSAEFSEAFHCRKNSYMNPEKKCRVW

As to `CC[C@H](C)[C@@H]1NC(=O)[C@H](CCCNC(=N)N)NC(=O)[C@H](CC(=O)O)NC(=O)[C@H](CC(C)C)NC(=O)[C@H](CCCCN)NC(=O)[C@H](CC(C)C)NC(=O)CNC(=O)[C@H](Cc2ccccc2)NC(=O)[C@@H](NC(=O)CNC(=O)[C@H](CCCNC(=N)N)NC(=O)[C@H](CO)NC(=O)[C@H](CC(C)C)NC(=O)CN)CSSC[C@@H](C(=O)O)NC(=O)CNC(=O)[C@H](CC(C)C)NC(=O)CNC(=O)[C@H](CO)NC(=O)[C@H](CCSC)NC(=O)[C@H](CO)NC(=O)[C@H](CO)NC1=O` [Analog BK, CNP22, K4R, G15S] (H-GLSRGCFGLKLDRISSMSGLGC-OH; disulfide 6-22; N-terminus and C-terminus assumed), on NPR-B, the “cGMP Response rel. to 1 uM CNP22, 10 nM” value is given as 13 ± 1 and the “cGMP Response rel. to 1 uM CNP22, 1 uM” value is reported as 71 ± 11. For the same compound, at Recombinant human NEP, the “resistance to NEP cleavage (in words)” value is reported as “greatest resistance to NEP cleavage” and the “NEP Cleavage (t1/2, min)” value is on record as at least 160 min.

Consider `CC[C@H](C)[C@@H]1NC(=O)[C@H](CCCNC(=N)N)NC(=O)[C@H](CC(=O)O)NC(=O)[C@H](CC(C)C)NC(=O)[C@H](CCCCN)NC(=O)[C@H](CC(C)C)NC(=O)CNC(=O)[C@H](Cc2ccccc2)NC(=O)[C@@H](NC(=O)CNC(=O)[C@H](CCCCN)NC(=O)[C@H](CO)NC(=O)[C@H](CC(C)C)NC(=O)CNC(=O)[C@H](CCC(N)=O)NC(=O)[C@H](CCC(N)=O)NC(=O)[C@H](CC(N)=O)NC(=O)[C@H](C)NC(=O)CNC(=O)[C@H](Cc2c[nH]cn2)NC(=O)[C@@H](NC(=O)[C@H](CC(=O)O)NC(=O)[C@H](Cc2c[nH]cn2)NC(=O)[C@H](CCC(=O)O)NC(=O)[C@H](Cc2c[nH]cn2)NC(=O)[C@@H]2CCCN2C(=O)[C@H](Cc2c[nH]cn2)NC(=O)[C@H](Cc2c[nH]cn2)NC(=O)[C@H](C)NC(=O)CN)[C@@H](C)O)CSSC[C@@H](C(=O)O)NC(=O)CNC(=O)[C@H](CC(C)C)NC(=O)CNC(=O)[C@H](CO)NC(=O)[C@H](CCSC)NC(=O)[C@H](CO)NC(=O)CNC1=O` [Analog CR] (H-GAHHPHEHDTHGANQQGLSKGCFGLKLDRIGSMSGLGC-OH; disulfide 22-38; N-terminus and C-terminus assumed), for which, on NPR-B, the “cGMP Response rel. to 1 uM CNP22, 10 nM” value stood at 14 ± 5 and the “cGMP Response rel. to 1 uM CNP22, 1 uM” value is 77 ± 12.

`CC[C@H](C)[C@@H]1NC(=O)[C@H](CCCNC(=N)N)NC(=O)[C@H](CC(=O)O)NC(=O)[C@H](CC(C)C)NC(=O)[C@H](CCCCN)NC(=O)[C@H](CC(C)C)N(C)C(=O)CNC(=O)[C@H](Cc2ccccc2)NC(=O)[C@@H](NC(=O)CNC(=O)[C@H](CCCCN)NC(=O)[C@H](CO)NC(=O)[C@H](CC(C)C)NC(=O)CN)CSSC[C@@H](C(=O)O)NC(=O)CNC(=O)[C@H](CC(C)C)N(C)C(=O)CNC(=O)[C@H](CO)NC(=O)[C@H](CCSC)NC(=O)[C@H](CO)NC(=O)CNC1=O` [Analog K, CNP22, N-methyl-L9, N-methyl-L20]: on NPR-B, the “cGMP Response rel. to 1 uM CNP22, 10 nM” value was found to be 1 and the “cGMP Response rel. to 1 uM CNP22, 1 uM” value is 1. In addition, on Recombinant human NEP, the “NEP Cleavage (t1/2, min)” value is 80 min.

As to “SPKMVQGSG-CNP17-KVLRRH (SPKMVQGSGCFGLKLDRIGSMSGLGCKVLRRH; disulfide 10-26 (inferred); ends not checked) [Analog CD]”, the “NPR-B stimulation activity / cGMP production compared with wtCNP22 (in words)” value in the data set with NPR-B (NIH3T3 cells) is given as “comparable NPR-B stimulation activity as wtCNP22”.

With `CC[C@H](C)[C@@H]1NC(=O)[C@H](CCCNC(=N)N)NC(=O)[C@H](CC(=O)O)NC(=O)[C@H](CC(C)C)NC(=O)[C@H](CCCCN)NC(=O)[C@H](CC(C)C)NC(=O)CNC(=O)[C@H](Cc2ccccc2)NC(=O)[C@@H](NC(=O)CNC(=O)[C@H](CCCNC(=N)N)NC(=O)[C@H](CO)NC(=O)[C@H](CC(C)C)NC(=O)CN)CSSC[C@@H](C(=O)O)NC(=O)CNC(=O)[C@H](CC(C)C)NC(=O)CNC(=O)[C@H](CO)NC(=O)[C@H](CCSC)NC(=O)[C@H](CO)NC(=O)[C@H](CCCNC(N)=O)NC1=O` [Analog AF, CNP22, K4R, G15Cit] (H-GLSRGCFGLKLDRI[Cit]SMSGLGC-OH; disulfide 6-22), at NPR-B, the “cGMP Response rel. to 1 uM CNP22, 10 nM” value is 1.4 and the “cGMP Response rel. to 1 uM CNP22, 1 uM” value came out at 2.

In the case of `CC[C@@H](C)[C@H]1NC(=O)[C@@H](CCCNC(=N)N)NC(=O)[C@@H](CC(=O)O)NC(=O)[C@@H](CC(C)C)NC(=O)[C@@H](CCCCN)NC(=O)[C@@H](CC(C)C)NC(=O)CNC(=O)[C@@H](Cc2ccccc2)NC(=O)[C@H](NC(=O)CNC(=O)[C@@H](CCCCN)NC(=O)[C@@H](CO)NC(=O)[C@@H](CC(C)C)NC(=O)CN)CSSC[C@H](C(=O)O)NC(=O)CNC(=O)[C@@H](CC(C)C)NC(=O)CNC(=O)[C@@H](CO)NC(=O)[C@@H](CCSC)NC(=O)[C@@H](CO)NC(=O)CNC1=O` [Analog N, D-CNP22 (all D-amino acids)], at NPR-B, the “cGMP Response rel. to 1 uM CNP22, 10 nM” value is recorded as 2 and the “cGMP Response rel. to 1 uM CNP22, 1 uM” value amounted to 1. In addition, on Recombinant human NEP, the “NEP Cleavage (t1/2, min)” value is on record as >>160 min. On Recombinant human NEP (in vitro NEP assay, assay period 160 minutes), the “resistance to NEP cleavage (in words)” value is on record as “greatest resistance to NEP cleavage”.

Regarding `CC[C@H](C)[C@@H]1NC(=O)[C@H](CCCNC(=N)N)NC(=O)[C@H](CC(=O)O)NC(=O)[C@H](CC(C)C)N(C)C(=O)[C@H](CCCCN)NC(=O)[C@H](CC(C)C)N(C)C(=O)CNC(=O)[C@H](Cc2ccccc2)NC(=O)[C@@H](NC(=O)CNC(=O)[C@H](CCCCN)NC(=O)[C@H](CO)NC(=O)[C@H](CC(C)C)NC(=O)CN)CSSC[C@@H](C(=O)O)NC(=O)CNC(=O)[C@H](CC(C)C)NC(=O)CNC(=O)[C@H](CO)NC(=O)[C@H](CCSC)NC(=O)[C@H](CO)NC(=O)CNC1=O` [Analog M, CNP22, N-methyl-L9, N-methyl-L11], on NPR-B, the “cGMP Response rel. to 1 uM CNP22, 10 nM” value worked out at 1 and the “cGMP Response rel. to 1 uM CNP22, 1 uM” value stood at 11. At Recombinant human NEP, the “resistance to NEP cleavage (in words)” value is reported as “greatest resistance to NEP cleavage” and the “NEP Cleavage (t1/2, min)” value is reported as >>160 min.

On to `CC[C@H](C)[C@@H]1NC(=O)[C@H](CCCNC(=N)N)NC(=O)[C@H](CC(=O)O)NC(=O)[C@H](CC(C)C)NC(=O)[C@H](CCCCN)NC(=O)[C@H](CC(C)C)NC(=O)CNC(=O)[C@H](Cc2ccccc2)NC(=O)[C@@H](NC(=O)CNC(=O)[C@H](CCCNC(=N)N)NC(=O)[C@H](CO)NC(=O)[C@H](CC(C)C)NC(=O)CN)CSSC[C@@H](C(=O)O)NC(=O)CNC(=O)[C@H](CC(C)C)NC(=O)CNC(=O)[C@H](CO)NC(=O)[C@H](CCSC)NC(=O)[C@H](CO)NC(=O)[C@H](CCCNC(=N)N)NC1=O` [Analog AE, CNP22, K4R, G15R] (H-GLSRGCFGLKLDRIRSMSGLGC-OH; disulfide 6-22), for which, on NPR-B, the “cGMP Response rel. to 1 uM CNP22, 10 nM” value turned out to be 0.3 and the “cGMP Response rel. to 1 uM CNP22, 1 uM” value is given as 0.3.
